Laboratory results reported in paper PMC11530130, “Peripherally restricted PICK1 inhibitor mPD5 ameliorates pain behaviors in murine inflammatory and neuropathic pain models” (JCI Insight, 2024).

What was measured:
[1] = tested on: mice, streptozocin (STZ) model of type 1 diabetes; test: STZ model of diabetic neuropathy, von Frey; format: in vivo, mouse; settings: male mice, positive control, dose not given
Protocol: Induction of Diabetic neuropathy (STZ model).
Diabetes was induced by a single i.p. injection of […] streptozocin (STZ) solution (100 μL/10 g, Sigma-Aldrich S0130, batch #WXBB7152V) in male seven-week-old C57BL/6J (Charles River) mice. Glycemia was tested before, and seven days after injection. All injected mice had blood glucose concentration >350 mg/dL from day seven and were used for analgesic testing of the compounds from day 14. One mouse had to be euthanized at seven days post injection. This experiment was performed by Phenotype Expertise, Marseilles, France - Pain and CNS behaviour CRO under supervision of Stéphane Gaillard, PhD (CEO). […]
(§1) The skin wound was closed with two medical clips (Michel Suture Clips, 7.5x1.75 mm, Angthos, 12040-01). Post-surgical analgesia included s.c. injection of 5 mg/kg carprofen (Carprosan vet, 50 mg/mL mixed 1:25 in sterile ddH2O, Dechra, Le Vet Beheer B.V., Netherlands, Batch: 050520) right after surgery and the […]
(§2) following day. […]
(§3) The test battery of the CIBP model was carried out 45 or 90 min after morphine and mPD5 administration respectively to accommodate the peak efficacy […]
(§4) Mechanically evoked pain (von Frey test).
(§5) Unless otherwise specified, von Frey occurred as described in the following. Animals were habituated to the experimental room for a minimum of 60 min before initiation of the experiment. Mechanical paw withdrawal threshold (PWT) was determined by von Frey measurements of both hind paws. Von Frey filaments ranging from 0.04 to 2 g (g = gram- […]
(§6) Filaments in ascending order were applied to the frontocentral plantar surface of the hind paws.
(§7) Mice were placed in PVC plastic boxes (11.5 cm x 14 cm) on a wire mesh and allowed minimum 20 min habituation prior of experiment initiation. Each von Frey hair was applied five times with adequate resting periods between each application and number of withdrawals recorded. The withdrawal threshold was determined as the von Frey filament eliciting at least three positive trials out of the five applications in two consecutive filaments. A positive trial was defined as sudden paw withdrawal, flinching and/or paw licking induced by the filament.
(§8) For the CIBP model, two habituation sessions were performed on separated days with mice placed in the von Frey equipment for 1-1.5 hours in the presence of the experimenter on day one and random von Frey pocking with the 0.6 g filament on day two. Von Frey monofilaments (North Coast Touch Test, North Coast Medical, Inc.) with target forces of 0.04g, 0.07g, 0.16g, […]
(§9) down method” (PWT=10Xf+kδ) starting with the 0.6 g filament. Positive response was defined as; withdrawal, shaking or grooming of paw following a 2-3 second stimulation. In case, of unclear response, stimulus was repeated after 10-15 seconds.
(§10) For the STZ model, the mechanical threshold response of the injected mice was measured with […]
(§11) injection of test compounds on day 14, mechanical threshold was measured at 1 hour, 2 hours, 4 hours and 6 hours and again on day 15. […]
(§12) Thermally evoked pain (Hargreaves test).
A baseline Hargreaves test was performed on day 0 before inflammatory pain was induced as described in section 2.13. In the Hargreaves test, the mouse was placed in a container on a glass table and left to habituate for at least 15 min. Using the Hargreaves apparatus, a heat beam from beneath was directed towards the hind paws of the mouse, and the paw withdrawal time

[2] = tested on: mice, spared nerve injury (SNI) model; format: in vivo, mouse; settings: mouse, in vivo, sc
Protocol: solution (0.05 mg/kg) injected s.c. 30 min before surgery (10 μL/g). For surgery, mice were anaesthetised with ketamine (100 mg/kg, i.p.) and xylazine (10 mg/kg, i.p.) (volume 10 µL/g) with 100 μL of 1% xylocaine solution infiltrated at the site of the incision. The distal trifurcation of the sciatic nerve was identified, and the tibial and common peroneal branches were ligated with polypropylene nonabsorbable 6-0 sutures (Ethicon) and 1 mm was cut out, leaving the sural branch intact. The wound was closed with sutures, and the animals were allowed to recover and returned to their cages. Two subcutaneous injections of buprenorphine (0.05 mg/kg) were performed with an 8 to 12 hours delay decreasing pain due to the surgery […]
The remaining SNI pain experiments were performed in-house using the following procedure.
SNI surgery was performed on the left hindleg of C57BL/6J male and female mice (Janvier, France) under 2% isoflurane anaesthesia. Skin on the lateral surface was incised between hip and knee followed by lengthwise division of the biceps femoris muscle leading to exposure of the three branches of the sciatic nerve. Sural branch was left intact, while the peroneal and tibial branches were ligated with a single surgical knot and axotomized distally of the ligation.
Wounds were closed with surgical glue or medical clips and animals were monitored daily for signs of stress or discomfort, but in all cases recovered uneventfully. […]
as §1, §2, §3, §4, §5, §6, §7, §8, §9, §10, §11, §12
A baseline Hargreaves test was performed on day 0 before inflammatory pain was induced as described in section 2.13. In the Hargreaves test, the mouse was placed in a container on a glass […]

Compound	duration of significant pain relief [1]	itching in the mice [2]
CC(C)C[C@H](CN)CC(=O)O [pregabalin, reference compound]	up to 4 hours	–
CCCCCCCCCCCCCCCCCCCC(=O)N(CCOCCOCCC(=O)N[C@@H](Cc1c[nH]cn1)C(=O)N[C@@H](Cc1c[nH]c2ccccc12)C(=O)N[C@@H](CC(C)C)C(=O)N[C@@H](CCCCN)C(=O)N[C@H](C(=O)O)C(C)C)CCOCCOCCC(=O)N[C@@H](Cc1c[nH]cn1)C(=O)N[C@@H](Cc1c[nH]c2ccccc12)C(=O)N[C@@H](CC(C)C)C(=O)N[C@@H](CCCCN)C(=O)N[C@H](C(=O)O)C(C)C [aPD5, arachidoyl-NPEG4-(HWLKV)2]	–	profound itching
CCCCCCCCCCCCCCCCCC(=O)N(CCOCCOCCC(=O)N[C@@H](Cc1c[nH]cn1)C(=O)N[C@@H](Cc1c[nH]c2ccccc12)C(=O)N[C@@H](CC(C)C)C(=O)N[C@@H](CCCCN)C(=O)N[C@H](C(=O)O)C(C)C)CCOCCOCCC(=O)N[C@@H](Cc1c[nH]cn1)C(=O)N[C@@H](Cc1c[nH]c2ccccc12)C(=O)N[C@@H](CC(C)C)C(=O)N[C@@H](CCCCN)C(=O)N[C@H](C(=O)O)C(C)C [sPD5, stearoyl-NPEG4-(HWLKV)2]	–	profound itching
